Source: patent US20180071307A1, “MEDICINAL COMPOSITION FOR ALLEVIATING ENDOMETRIOSIS AND COMPLICATIONS THEREOF AND USE OF THE SAME” (NATIONAL SUN YAT-SEN UNIVERSITY, priority 2016, published 2018)

How the values were obtained:
[1] = test system: ovarian clear cell carcinoma cell lines ES-2 and TOV-21G; test: cell growth via MTT assay; assay type: cell-based, human; conditions: after 48 h of treatment
Excerpt: (§1) For anti-ribosome biogenesis assays, including cell growth, cell migration and cell cycle analysis, ovarian clear cells were maintained for five days in culture medium with or without RNA polymerase I inhibitor, CX-5461 (Selleckchem, Houston, Tex.) or GSK2126458 (GlaxoSmithKline, Middlesex, United Kingdom).
(§2) Please refer to FIGS. 4A to 4E, which illustrate that mTOR/c-Myc inhibition suppresses cell growth and mobility of ovarian clear cells according to an embodiment of the present invention. FIG. 4A is depicted to ovarian cancer cell lines, ES-2 and TOV-2IG, treated with the mTOR/c-Myc inhibitor, GSK2126458, at a final concentration of 50 nM. GSK2126458 effects on effectors of ribosome biogenesis were measured by qPCR at the indicated time points. […] FIG. 4B is depicted to GSK2126458 effects on cell growth were assessed via MTT assay. FIG. 4C is depicted to cell mobility measured using wound-healing migration assays. Cells migrating into the detection zone were counted and averaged from eight replicates. […] FIG. 4E is depicted to cell cycle inhibited by GSK2126458 after 48 hours of treatment and analyzed by flow cytometry using propidium iodide DNA staining. […]
(§3) Please refer to FIGS. 5A to 5D, which illustrate that RNA polymerase 1 inhibition suppresses cell growth and mobility of ovarian clear cells. […] FIG. 5B is depicted to CX-5461 effects on cell growth were assessed via MTT assay. […]

[2] = test system: ovarian clear cell carcinoma cell lines ES-2 and TOV-21G; test: wound-healing migration assay (cell mobility); assay type: cell-based, human; conditions: after 48 h of treatment
Excerpt: as §1, §2, §3

[3] = test system: ovarian clear cell carcinoma cell lines ES-2 and TOV-21G; test: DNA synthesis (BrdU incorporation); assay type: cell-based, human; conditions: after 48 h of treatment
Excerpt: as §1
(§4) Please refer to FIGS. 4A to 4E, which illustrate that mTOR/c-Myc inhibition suppresses cell growth and mobility of ovarian clear cells according to an embodiment of the present invention. FIG. 4A is depicted to ovarian cancer cell lines, ES-2 and TOV-2IG, treated with the mTOR/c-Myc inhibitor, GSK2126458, at a final concentration of 50 nM. GSK2126458 effects on effectors of ribosome biogenesis were measured by qPCR at the indicated time points. Data were represented as means of triplicates with standard variations. FIG. 4B is depicted to GSK2126458 effects on cell growth were assessed via MTT assay. FIG. 4C is depicted to cell mobility measured using wound-healing migration assays. Cells migrating into the detection zone were counted and averaged from eight replicates. FIG. 4D is depicted to DNA synthesis (BrdU incorporation) of cells influenced by GSK2126458. FIG. 4E is depicted to cell cycle inhibited by GSK2126458 after 48 hours of treatment and analyzed by flow cytometry using propidium iodide DNA staining. The cell cycle of many cells was inhibited and arrested at G1 phase.

[4] = test system: ovarian clear cell carcinoma cell lines ES-2 and TOV-21G; test: cell cycle analysis by flow cytometry using propidium iodide DNA staining (both cell lines, result in words); assay type: cell-based, human; conditions: after 48 hours of treatment (FIG. 4E)
Excerpt: as §1, §4

endometriosis lesions = test: mouse model of endometriosis: lesion numbers; assay type: in vivo, C57BL/6 mice; conditions: compared to respective vehicle; CX-5461 1.25 mg/100 μL thrice per week, GSK2126458 0.075 mg/100 μL five times per week, three weeks
Method: (§5) Mature (approximately 8-week-old) female C57BL/6 mice were purchased from Harlan Laboratories (Derby, UK) and were allowed to acclimate for 1 week before surgery. Mice were maintained on standard chow and water available ad libitum and were housed in environmentally controlled facilities illuminated between 7:00 AM and 7:00 PM. All the animal procedures were performed in accordance with legal requirements.
Typically, menstruation was induced in adult donor mice (approximately 8 weeks of age) using a protocol developed as aforemented. In brief, long-term ovariectomized (OVE) mice (day 1) were primed with s.c. injections of 100 ng of estradiol-17β (days 7 to 9), treated with progesterone (P4; Sigma-Aldrich, Dorset, UK) delivered via a SILASTIC implant (Dow Corning Corp, Midland, Mich.) from days 13 to 19, and injected with 5 ng of estradiol-17β in sesame oil on days 13, 14, and 15. Decidualization was induced in one uterine horn using […] of oil (day 15), and endometrial tissue in the process of being shed from the decidualized horn was recovered from mice culled on day 19, 4 hours after P4 withdrawal (removal of pellet) by opening the horn longitudinally in a petri dish and scraping the tissue away from the myometrial layer using a scalpel. […]

[5] = test system: inflammatory cells (small peritoneal macrophages, neutrophils) in abdominal cavity; test: mouse model of endometriosis: inflammatory cells in abdominal cavity; assay type: in vivo, C57BL/6 mice; conditions: comparing with naive, sham and vehicles; for small peritoneal macrophages in abdominal cavity: three weeks of treatment (FIG. 8A); for neutrophils in abdominal cavity: three weeks of treatment (FIG. 8B)
Method: as §5
(§6) Typically, menstruation was induced in adult donor mice (approximately 8 weeks of age) using a protocol developed as aforemented. In brief, long-term ovariectomized (OVE) mice (day 1) were primed with s.c. injections of 100 ng of estradiol-17β (days 7 to 9), treated with progesterone (P4; Sigma-Aldrich, Dorset, UK) delivered via a SILASTIC implant (Dow Corning Corp, Midland, Mich.) from days 13 to 19, and injected with 5 ng of estradiol-17β in sesame oil on days 13, 14, and 15. Decidualization was induced in one uterine horn using […] of oil (day 15), and endometrial tissue in the process of being shed from the decidualized horn was recovered from mice culled on day 19, 4 hours after P4 withdrawal (removal of pellet) by opening the horn longitudinally in a petri dish and scraping the tissue away from the myometrial layer using a scalpel. The tissue mass was suspended in 0.2 mL of PBS and passed through a 19-gauge needle before being injected i.p. into anesthetized recipient mice (approximately 8 weeks of age) that had been previously ovariectomized and implanted with an estradiol-17β (Sigma-Aldrich) SILASTIC implant (FIG. 6). Tissue from one decidualized donor horn was used to inoculate each recipient mouse (approximately 40 mg tissue/0.2 mL PBS per mouse) on day 19. In FIG. 6, there are four groups: B, injecting recipient mice with EV once and vehicle of CX-5461 every Monday, Wednesday and Friday for three weeks; GSK, injecting recipient mice with EV once and GSK2126458 on Monday to Friday for three weeks; A, injecting recipient mice with EV once and vehicle of GSK2126458 on Monday to Friday for three weeks; Sham, injecting recipient mice with EV once (no endometriosis, hormone treatment); Naive, mice without endometriosis or treated with any hormone or drug.
[…] E2 (E2, 100 ng/100 μL or 5 ng/100 μL) was diluted in sesame oil. Estradiol valerate (EV, 500 ng/100 μL) was diluted in sesame oil. P4 pellet was fused with progesterone (P4; Sigma-Aldrich, Dorset, UK) delivered via a SILASTIC implant (Dow Corning Corp, Midland, Mich.). […]

[6] = test system: endometriosis-related pain; test: mouse model of endometriosis: tunnel entries (overall activity); assay type: in vivo, C57BL/6 mice; conditions: versus vehicles; day 33 to day 40 (FIG. 9A)
Method: as §5
Typically, menstruation was induced in adult donor mice (approximately 8 weeks of age) using a protocol developed as aforemented. In brief, long-term ovariectomized (OVE) mice (day 1) were primed with s.c. injections of 100 ng of estradiol-17β (days 7 to 9), treated with progesterone (P4; Sigma-Aldrich, Dorset, UK) delivered via a SILASTIC implant (Dow Corning Corp, Midland, Mich.) from days 13 to 19, and injected with 5 ng of estradiol-17β in sesame oil on days 13, 14, and 15. […]
On day 33 to day 40, some behavior tests were scored from tunnel entries and pressure pain thresholds. Mice freely moved in three cages connected by tunnels, and numbers of tunnel entered by each mouse were measured in five minutes, and the average of three measures were calculated, for evaluating overall activity of each mouse. […]

[7] = test system: endometriosis-related pain; test: mouse model of endometriosis: pressure pain thresholds (mechanical hyperalgesia); assay type: in vivo, C57BL/6 mice; conditions: versus vehicles; for abdominal retraction threshold: day 33 to day 40 (FIG. 9B); for paw withdrawal threshold: hind paw, day 33 to day 40 (FIG. 9C)
Method: as §5
as §6, with “In FIG. 6, there are four groups: B, injecting recipient mice with EV once and vehicle of CX-5461 every Monday, Wednesday and Friday for three weeks; GSK, injecting recipient mice with EV once and GSK2126458 on Monday to Friday for three weeks; A, injecting recipient mice with EV once and vehicle of GSK2126458 on Monday to Friday for three weeks; Sham, injecting recipient mice with EV once (no endometriosis, hormone treatment); Naive, mice without endometriosis or treated with any hormone or drug.” left out
Pressure pain thresholds were assessed by a commercially available pain evaluation kit (Touch Test® Sensory Evaluators (North Coast Medical Inc., CA, U.S.A.). This pain evaluation kit has different probes (or needles) of different diameters, which were respectively stab the abdomen or the palmar side of the hind paw of mice. Mice were instructed to signal when the stimulus became painful, and observed which size cause painful. Threshold levels (gravity, g) were assessed before and after the test, and the average of three measures were calculated, for evaluating abdominal retraction threshold (g) or paw withdrawal threshold (g) of each mouse. […]

[8] = test system: effectors of ribosome biogenesis (selected snoRNAs and RPs); test: qPCR of effectors of ribosome biogenesis in ovarian clear cell carcinoma cells; assay type: cell-based, human; conditions: ES-2 and TOV-21G, following 24 h of treatment
Excerpt: as §1, §2, §3

ES-2 cells = test: cell cycle analysis by flow cytometry using propidium iodide DNA staining, ES-2; assay type: cell-based, human; conditions: after 96 h of treatment
Excerpt: as §1
(§7) Please refer to FIGS. 5A to 5D, which illustrate that RNA polymerase 1 inhibition suppresses cell growth and mobility of ovarian clear cells. FIG. 5A is depicted to cells treated with the RNA polymerase 1 inhibitor, CX-5461, at a final concentration of 25 nM. CX-5461 effects on downstream effectors of ribosome biogenesis were measured by qPCR at the indicated time points. Data were represented as means of triplicates with standard variations. FIG. 5B is depicted to CX-5461 effects on cell growth were assessed via MTT assay. FIG. 5C is depicted to cell mobility measured using wound-healing migration assays. Cells migrating into the detection zone were counted and averaged from eight replicates. FIG. 5D is depicted to treated cells that were analyzed at the indicated time points by flow cytometry using propidium iodide DNA staining.

TOV-21G cells = test: cell cycle analysis by flow cytometry using propidium iodide DNA staining, TOV-21G; assay type: cell-based, human; conditions: after 96 h of treatment
Excerpt: as §1, §7

Row | SMILES | cell proliferation rate [1] | cell mobility rate [2] | DNA synthesis [3] | cell cycle arrest [4] | cells of sub-G1 phase (implying cell death) [4] | lesion numbers (endometriosis lesions) | small peritoneal macrophages in abdominal cavity [5] | neutrophils in abdominal cavity [5] | overall activity (tunnel entries in five minutes) [6] | abdominal retraction threshold [7] | paw withdrawal threshold [7] | expression of the selected snoRNAs and RPs (qPCR, FIG. 5A) ([8]; CX-5461 at 25 nM) | expression of the selected snoRNAs and RPs (qPCR, FIG. 4A) ([8]; FIG. 4A legend: GSK2126458 at 50 nM) | cell arrest at G2/M-phase (ES-2 cells) [%] | cell death (ES-2 cells) [%] | cell arrest at G2/M-phase (TOV-21G cells) [%] | cell death (TOV-21G cells) [%]
1 | COc1ncc(-c2ccc3nccc(-c4ccnnc4)c3c2)cc1NS(=O)(=O)c1ccc(F)cc1F [GSK2126458, 2,4-difluoro-N-[2-methoxy-5-[4-(4-pyridazinyl)-6-quinolinyl]-3-pyridinyl]benzenesulfonamide] | decreased | decreased | inhibition | cell arrest at G1-phase | increased | significantly reduced | significantly reduced | significantly reduced | more active | higher | higher | – | – | – | – | – | –
2 | Cc1cnc(CNC(=O)c2c(=O)c3ccc(N4CCCN(C)CC4)nc3n3c2sc2ccccc23)cn1 [CX-5461] | decreased | decreased | inhibition | – | – | significantly reduced | significantly reduced | significantly reduced | more active | higher | higher | reduced | reduced | 48.1 | 12.3 | 52.3 | 23.4
